How the values were obtained:
IL-8 = experiment: Expression of IL-8 in pancreatic cancer associated fibroblasts (ELISA); assay type: cell-based, human; settings: P.CAF cells; compounds 10, 20, 30, 40, 60 and 80 µM for 48 hours; FIG. 6
Description: (§1) In order to confirm the effect of the compounds of Synthetic examples of the present invention on inflammation reaction in cancer associated fibroblasts, whether the expression of IL6 and IL8 was inhibited by the compounds of Synthetic examples in pancreatic cancer associated fibroblasts (PCAF) was observed.
(§2) After inoculating 1.5×10^5 cells in a 6 well plate and then culturing in P.CAF complete media for 48 hours, the compounds of Synthetic examples were treated by 10, 20, 30, 40, 60 and 80 µM for 48 hours according to each condition, and then the expression of IL-6 and IL-8 was confirmed by performing ELISA with Quantkine ELISA kit (R&D systems) as follows.
(§3) 100 µl of the culture solution in which the compounds of Synthetic examples were treated for 48 hours was added to the microplate strip for analysis including a 100 µl assay diluent and left at a room temperature for 2 hours and then the contents were removed, and then it was washed with 400 µl wash buffer 4 times. 200 µl of a human IL-6 or IL-8 conjugate was added and left at a room temperature for 2 hours and then the contents were removed, and then it was washed with 400 µl wash buffer 4 times. 200 µl of substrate solution was added and left at a room temperature for 20 minutes and then 50 µl of stop solution was added, and the absorbance at a wavelength of 450nm was measured within 30 minutes to confirm the expression level of IL-6 and IL-8.

IL-6 = experiment: Expression of IL-6 in pancreatic cancer associated fibroblasts (ELISA); assay type: cell-based, human; settings: P.CAF cells; compounds 10, 20, 30, 40, 60 and 80 µM for 48 hours; FIG. 5
Description: as §1, §2, §3

[1] = test system: human foreskin fibroblasts (HFF-1, ATCC); experiment: Collagen gel contraction induced by TGF-β1; assay type: cell-based; settings: HFF-1 cells and bovine type I collagen; TGF-β1 (10 ng/ml); 72 hours; FIG. 7
Source text: In order to confirm the effect of the compounds of Synthetic examples on differentiation of fibroblasts into myofibroblasts, the inhibitory effect of the compounds of Synthetic examples on the phenomenon of contraction of gel induced by interaction of human foreskin fibroblasts (HFF-1, ATCC) and collagen was observed.
The mixed solution of the HFF-1 cells and collagen (bovine type I collagen) prepared at a concentration of 3×10^6 cells/ml was aliquoted in a 24 well plate, respectively, and then cultured under the condition of 5% CO2, 37 °C for 1 hour to induce gel polymerization. Then, after suspending the gel attached on the plate from the plate using a spoon, a medium comprising TGF-β1 and Synthetic example compounds was added to each well. After culturing for 72 hours, the Synthetic example compounds were treated by 10, 20, 30, 40, 60 and 80 µM to measure the size of the gel, and thereby, the degree of contraction of the gel by drug treatment was confirmed.

[2] = test system: N27 (rat dopaminergic neural cell, Sigma) cells; experiment: ROS production induced by alpha-synuclein preformed fibril (PFF) in dopaminergic neural cells (CellROX-Deep Red); assay type: cell-based; settings: 0.001 µM, 24 hours, FIG. 2
Description: In order to confirm the effect of the compounds of Synthetic examples on ROS production from dopaminergic neural cells, ROS production was induced by alpha-synuclein preformed fibril (PFF) stimulation on N27 (rat dopaminergic neural cell, Sigma) cells and under this condition, the inhibitory effect of ROS production of the compounds of Synthetic examples was observed.
The N27 cells were cultured in RPMI medium containing 10% FBS, 1 µM angiotensin II, and the prepared cells were aliquoted at a concentration of 4×10^3 cells/well on a 6-well plate. The ROS production stimulus, PFF (preformed fibril) and the compounds of Synthetic examples were treated to the cells. After treating the compounds of Synthetic examples for 24 hours, fluorescence of each well was measured using CellROX-Deep Red reagent, thereby confirming the degree of ROS production.

## CN(Cc1ccc(F)cc1F)C1CCc2nn(-c3ccccn3)c(O)c2C1 (stereo not drawn) [Compound 5, 5-[(2,4-Difluorobenzyl)methylamino]-2-(pyridin-2-yl)-4,5,6,7-tetrahydro-2H-indazol-3-ol]
IL-8
  IL-8 expressed in P.CAF: effectively inhibited
IL-6
  IL-6 expressed in P.CAF: effectively inhibited
[1]
  contraction of the gel induced by TGF-β1: effectively inhibited

## CN(Cc1ccc(S(C)(=O)=O)cc1)C1CCc2nn(-c3ccccn3)c(O)c2C1 (stereo not drawn) [Compound 12, 5-[(4-Methanesulfonylbenzyl)methylamino]-2-(pyridin-2-yl)-4,5,6,7-tetrahydro-2H-indazol-3-ol]
[2]
  ROS production induced by PFF: effectively inhibited
[1]
  contraction of the gel induced by TGF-β1: effectively inhibited

## COc1cccc(CN(C)C2CCc3nn(-c4ccccn4)c(O)c3C2)c1 (stereo not drawn) [Compound 13, 5-[(3-Methoxybenzyl)methylamino]-2-(pyridin-2-yl)-4,5,6,7-tetrahydro-2H-indazol-3-ol]
[1]
  contraction of the gel induced by TGF-β1: effectively inhibited

## Oc1c2c(nn1-c1ccccn1)CCC(N1CCCCC1)C2 (stereo not drawn) [Compound 14, 5-Piperidin-1-yl-2-(pyridin-2-yl)-4,5,6,7-tetrahydro-2H-indazol-3-ol]
[1]
  contraction of the gel induced by TGF-β1: effectively inhibited

## CN(Cc1cccc(S(C)(=O)=O)c1)C1CCc2nn(-c3ccccn3)c(O)c2C1 (stereo not drawn) [Compound 23, 5-[Methyl(3-methylsulfonylbenzyl)amino]-2-(pyridin-2-yl)-4,5,6,7-tetrahydro-2H-indazol-3-ol]
IL-8
  IL-8 expressed in P.CAF: effectively inhibited
IL-6
  IL-6 expressed in P.CAF: effectively inhibited
[1]
  contraction of the gel induced by TGF-β1: effectively inhibited

## Oc1c2c(nn1-c1ccccn1)CCC(Nc1ccc(F)c(F)c1)C2 (stereo not drawn) [Compound 32, 5-(3,4-Difluorophenylamino)-2-(pyridin-2-yl)-4,5,6,7-tetrahydro-2H-indazol-3-ol]
[2]
  ROS production induced by PFF: effectively inhibited

## CN(C1CCc2nn(-c3ccccn3)c(O)c2C1)C1CCCc2cccnc21 (stereo not drawn) [Compound 33, 5-[Methyl(5,6,7,8-tetrahydroquinolin-8-yl)amino]-2-(pyridin-2-yl)-4,5,6,7-tetrahydro-2H-indazol-3-ol]
IL-8
  IL-8 expressed in P.CAF: effectively inhibited
IL-6
  IL-6 expressed in P.CAF: effectively inhibited
[1]
  contraction of the gel induced by TGF-β1: effectively inhibited

## O=C(C1CC1)N1CCN(C2CCc3nn(-c4ccccn4)c(O)c3C2)CC1 (stereo not drawn) [Compound 38, Cyclopropyl[4-(3-hydroxy-2-(pyridin-2-yl)-4,5,6,7-tetrahydro-2-indazol-5-yl)piperazin-1-yl]methanone]
IL-8
  IL-8 expressed in P.CAF: effectively inhibited
IL-6
  IL-6 expressed in P.CAF: effectively inhibited
[1]
  contraction of the gel induced by TGF-β1: effectively inhibited

## CN(Cc1cc2ccccc2cn1)C1CCc2nn(-c3ccccn3)c(O)c2C1 (stereo not drawn) [Compound 62, 5-[(Isoquinolin-3-ylmethyl)methylamino]-2-(pyridin-2-yl)-4,5,6,7-tetrahydro-2H-indazol-3-ol]
IL-8
  IL-8 expressed in P.CAF: effectively inhibited
IL-6
  IL-6 expressed in P.CAF: effectively inhibited
[1]
  contraction of the gel induced by TGF-β1: effectively inhibited

## CN(Cc1ccc2ncccc2c1)C1CCc2nn(-c3ccccn3)c(O)c2C1 (stereo not drawn) [Compound 63, 5-[Methyl(quinolin-6-ylmethyl)amino]-2-(pyridin-2-yl)-4,5,6,7-tetrahydro-2H-indazol-3-ol]
IL-8
  IL-8 expressed in P.CAF: effectively inhibited
IL-6
  IL-6 expressed in P.CAF: effectively inhibited
[1]
  contraction of the gel induced by TGF-β1: effectively inhibited

## CN1CCN(C2CCc3nn(-c4ccc(C(F)(F)F)cn4)c(O)c3C2)CC1 (stereo not drawn) [Compound 82, 5-(4-Methylpiperazin-1-yl)-2-(5-(trifluoromethyl)pyridin-2-yl)-4,5,6,7-tetrahydro-2H-indazol-3-ol]
[2]
  ROS production induced by PFF: effectively inhibited

Reference: patent EP4501920A1, “NOVEL PYRAZOLE DERIVATIVES” (Aptabio Therapeutics Inc., priority 2022, dated 2023)
